The nature of data set [1]: log P (octanol-water fractionation coefficient). The conditions noted are these: for logP: octanol/water.
Data set [2] can be described thus: Composition identification of the solvent after 30 times of washing with solvent reuse. The conditions noted are these: for Content in solvent collected in the solvent storage tank after final washing: initial 96.0 wt %. In kind it is physicochemical. As for the experimental part: The washing machines according to Examples and Comparative Examples according to the present disclosure were prepared, and washing was performed under the same conditions. The same type of fibers was put into each washing machine, and a composition including a compound according to the Chemical Formula 1 (wherein R1 and R2 are alkyl having 1 carbon atom, and R3 is hydrogen) was used as a laundry solvent.
At the first washing, the solvent was supplied, the washing was performed for 15 minutes, the solvent was collected while undergoing a drying process, another fiber was put into the washing machine, and the collected solvent was re-supplied for washing. 30 times of washing in total were performed in the same way, without replacement of the solvent storage tank or cartridge during the washing process.

This note sets out measurements from patent US20230242843A1, “GREEN SOLVENT, LAUNDRY COMPOSITION COMPRISING SAME, AND WASHING MACHINE” (LG HOUSEHOLD & HEALTH CARE LTD., priority 2020, published 2023).

Broadly, the logP is the decadic logarithm of the partition coefficient of the neutral form, usually between octanol and water. A low value points to a more hydrophilic compound.

`Cc1cc(O)c(C)c(O)c1C(=O)O` [2,4-Dihydroxy-3,6-dimethylbenzoic acid] gave a logP in data set [1] of 2.19.

In the case of `CCCCOCCOCCO` [2-(2-butoxyethoxy)ethanol], the logP in data set [1] was determined as 0.65.

`Cc1nc(N(C)C)nc(O)c1C` [2-(dimethylamino)-5,6-dimethylpyrimidin-4-ol] returned a logP in data set [1] of 1.63.

Regarding `CCOC(=O)c1ccccc1C(=O)O` [2-(ethoxycarbonyl)benzoic acid], in data set [1], the logP was 1.8. This logP and that of the molecule before are within 0.2 log units of each other.

In the case of `CCCCCCC(C=O)=Cc1ccccc1` [Alpha-hexyl cinnamaldehyde, reference compound], the logP in data set [1] turned out to be 4.68.

In the case of `CC1(C)OCC(CO)O1` (stereo not drawn) [Chemical Formula 1, solketal], the “Amount decomposed into acetone and glycerol” value in data set [2] (30 washings, conventional washing machine (Comparative Example 2-1)) is listed as “approximately 30 wt %”. Moreover, the “Content in solvent collected in the solvent storage tank after final washing” value amounted to 69.0 wt % in data set [2] (30 washings, washing machine of Comparative Example 2-1 (conventional)); 91.4 wt % in data set [2] (30 washings, washing machine of Example 2-1); 92.7 wt % in data set [2] (30 washings, washing machine of Example 2-2); 94.1 wt % in data set [2] (30 washings, washing machine of Example 2-3); 94.9 wt % in data set [2] (30 washings, washing machine of Example 2-4); 95.5 wt % in data set [2] (30 washings, washing machine of Example 2-5). Moreover, in data set [2] (after 30 times of washing, washing machine according to an example embodiment), the Amount decomposed result is listed as “less than 10 wt %”. For the same molecule, in data set [1] (octanol-water), the “Log P” value is “approximately 1.07”.

In turn, `OCCO` [Ethylene glycol, reference compound] yielded a log partition coefficient (logP) in data set [1] of -1.93.

For the molecule `CC(C)=CCC/C(C)=C/CO` [Geraniol], the logP in data set [1] was 3.47.

Regarding `Oc1cccc(O)c1` [Resorcinol], in data set [1], the logP is 1.13.

In data set [1], `COc1cc(C=O)ccc1O` [Vanillin] showed a logP of 0.71.
